Data taken from patent publication US8580814B2, “Methods of using (+)-1,4-dihydro-7-[(3S,4S)-3-methoxy-4-(methylamino)-1-pyrrolidinyl]-4- oxo-1-(2-thiazolyl)-1,8-naphthyridine-3-carboxylic acid for treatment of cancer” (priority 2006, dated 2013).
“And” between values parts separate entries of the source, which are not always exact repeats. Equal entries are not always repeated. Marks after values point to notes of the source that are not given here.

Key:
refractory solid tumors = assay: Clinical activity in patients with advanced solid tumors; format: in vivo, human; parameters: key to Best Response: partial response (PR); stable disease SD; Partial/Minor Responses (PR/MR); details: for Iliac node: Baseline 5.5; for RMLL Lung / Rectosigmoid: Baseline 2.5; for RML Lung: Baseline 3.9; for RUL Lung: Baseline 4.7; for Liver met: Baseline 7.4
Procedure: The administered dose of SNS-595 can be delivered as a single dose such as, for example, an IV push of 10-15 minutes duration (e.g. a single bolus injection) or over time such as, for example, a 24-hour period (e.g., continuous infusion over time or divided bolus doses over time) and is repeated as necessary, for example, until the patient experiences stable disease or regression, or until the patient experiences disease progression or unacceptable toxicity. For example, stable disease for solid tumors generally means that the perpendicular diameter of measurable lesions has not increased by 25% or more from the last measurement. See e.g., Response Evaluation Criteria in Solid Tumors (RECIST) Guidelines, Journal of the National Cancer Institute 92(3): 205-216 (2000). Stable disease or lack thereof is determined by methods known in the art such as evaluation of patient symptoms, physical examination, visualization of the tumor that has been imaged using X-ray, CAT, PET, or MRI scan and other commonly accepted evaluation modalities.
SNS-595 was administered to patients with advanced solid cancers as an IV infusion over 10 minutes on 2 schedules. In the first schedule (A), a weekly dose of SNS-595 was administered for three weeks followed by at least 7 days off (qwk×3). In the second schedule (B), a dose of SNS-595 was administered once every three weeks (q3wk).
In both schedules, the starting dose of SNS-595 was 3 mg/m^2, and doses were escalated by sequential cohorts of 3. The doses were doubled until the first related adverse event at or above Grade 2 or until the first abnormal lab value. The doses were then escalated by a modified Fibonacci schema.
In study A, 21 patients (9 male, 12 female) were treated in 6 cohorts (dose range 3-24 mg/m^2/wk). In study B, 41 (25 male, 16 female) patients were treated in 9 cohorts (dose range 3-75 mg/m^2/wk). The median ages were 61 yrs (Study A) and 59 yrs (Study B), sex 12F/9M (Study A), 16F/25M (Study B), all patients had baseline European Cooperative Oncology Group Performance Status (ECOG PS) 0-2. Patient eligibility included refractory solid tumors and adequate organ function.

[1] = test system: HCT-116 cells with 6 fold lower ATR levels; assay: MTT assay, sensitization (ATRFLOX); format: cell-based; details: compound 72 hours
Procedure: Cells were then incubated with 5% MTT for 1-2 hours and lysed. MTT was colorimetrically read at 570 nm and EC50's were determined using linear regression analysis.
Sensitization was carried out with various chemical treatments.

HCT-116 = assay: Timing of apoptosis (caspase-3 activation); format: cell-based; details: Cell Line HCT-116; dosed at 30 fold above the EC50 for cytotoxicity
[2] = test system: CCRF-CEM acute lymphoblastic leukemia tumor; assay: CCRF-CEM xenograft model; format: in vivo, nude mice; details: q7d X3, IV, 25 mg/kg
Procedure: CCRF-CEM acute lymphoblastic leukemia tumor lobes of 2-3 mm square were transplanted subcutaneously into nude mice. Tumors were allowed to grow to approximately 8-20 mm in diameter. […] Acceptable toxicity was defined as a mean group weight loss of 30% or less and not more than one toxic death among 6 treated animals. Anti-tumor activities of the drugs were assessed 20 or 21 days after the start of administration. Table 14 provides data for tumor inhibition (TI) and survival rate in the CCRF-CEM and LM3-Jck xenograft models.

[3] = both studies, advanced solid cancers
[4] = initial dosage 3 mg/m^2, q3wk, Lung
[5] = initial dosage 6 mg/m^2, q3wk, Renal Cell
[6] = initial dosage 6 mg/m^2, qwk x3, Renal Cell
[7] = initial dosage 12 mg/m^2, q3wk, Lung
[8] = initial dosage 12 mg/m^2, qwk x3, Leiomyosarcoma
[9] = initial dosage 12 mg/m^2, qwk x3, Melanoma
[10] = initial dosage 15 mg/m^2, qwk x3, Mesothelioma (two patients)
[11] = initial dosage 15 mg/m^2, qwk x3, Nasopharyngeal
[12] = initial dosage 24 mg/m^2, q3wk, Adenocarcinoma (unknown origin)
[13] = initial dosage 24 mg/m^2, qwk x3, Salivary Gland
[14] = initial dosage 36 mg/m^2, q3wk, Colon
[15] = initial dosage 36 mg/m^2, q3wk, Ovarian
[16] = initial dosage 48 mg/m^2, q3wk, Lung
[17] = initial dosage 48 mg/m^2, q3wk, Ovarian (two patients)
[18] = initial dosage 60 mg/m^2, q3wk, Neuroendocrine
[19] = initial dosage 60 mg/m^2, q3wk, Ovarian
[20] = initial dosage 75 mg/m^2, q3wk, Müllerian

## CN[C@H]1CN(c2ccc3c(=O)c(C(=O)O)cn(-c4nccs4)c3n2)C[C@@H]1OC [SNS-595, (+)-1,4-dihydro-7-[(3S,4S)-3-methoxy-4-(methylamino)-1-pyrrolidinyl]-4-oxo-1-(2-thiazolyl)-1,8-naphthyridine-3-carboxylic acid]
Refractory solid tumors; PR patient, Ovarian, C2, Baseline 1.7
  P-aortic node: 1.6 cm
Refractory solid tumors; PR patient, Ovarian, C2, Baseline 2.4
  Aortic node: 2.0 cm
Refractory solid tumors; PR patient, Ovarian, C2
  Iliac node: 5.0 cm
Refractory solid tumors; PR patient, Ovarian, C2, Baseline 467
  CA125: 272 U/mL
Refractory solid tumors; PR patient, Ovarian, C4, Baseline 1.7
  P-aortic node: 1.5 cm
Refractory solid tumors; PR patient, Ovarian, C4, Baseline 2.4
  Aortic node: 2.2 cm
Refractory solid tumors; PR patient, Ovarian, C4
  Iliac node: 4.7 cm
Refractory solid tumors; PR patient, Ovarian, C4, Baseline 467
  CA125: 176 U/mL
Refractory solid tumors; PR patient, Ovarian, C6, Baseline 1.7
  P-aortic node: 1.3 cm
Refractory solid tumors; PR patient, Ovarian, C6, Baseline 2.4
  Aortic node: 2.0 cm
Refractory solid tumors; PR patient, Ovarian, C6
  Iliac node: 3.9 cm
Refractory solid tumors; PR patient, Ovarian, C6, Baseline 467
  CA125: 120 U/mL
Refractory solid tumors; SD (MR) patient, Müllerian, C2
  RMLL Lung: 2.5 cm
  RML Lung: 3.9 cm
  RUL Lung: 4.5 cm
Refractory solid tumors; SD (MR) patient, Müllerian, C4
  RMLL Lung: 2.5 cm
  RML Lung: 3.7 cm
  RUL Lung: 4.5 cm
Refractory solid tumors; SD (MR) patient, Müllerian, C6
  RMLL Lung: 2.6 cm
  RML Lung: 2.4 cm
  RUL Lung: 5.0 cm
Refractory solid tumors; SD (MR) patient, Nasopharyngeal, C2, Baseline 1.1
  Left upper lobe nodule: 1.0 cm
Refractory solid tumors; SD (MR) patient, Nasopharyngeal, C2, Baseline 1.5
  Rt upper lobe nodule 2: 1.3 cm
Refractory solid tumors; SD (MR) patient, Nasopharyngeal, C2, Baseline 1.6
  Lingular nodule: 1.5
Refractory solid tumors; SD (MR) patient, Nasopharyngeal, C2, Baseline 2.3
  Rt upper lobe nodule 1: 1.5 cm
Refractory solid tumors; SD (MR) patient, Ovarian (first), C2, Baseline 1.7
  Aortic node: 1.5 cm
Refractory solid tumors; SD (MR) patient, Ovarian (first), C2, Baseline 1.8
  P-aortic node: 1.1 cm
Refractory solid tumors; SD (MR) patient, Ovarian (first), C2
  Liver met: 6.9 cm
Refractory solid tumors; SD (MR) patient, Ovarian (first), C2, Baseline 567
  CA125: 811 U/mL
Refractory solid tumors; SD (MR) patient, Ovarian (first), C4, Baseline 1.7
  Aortic node: 1.2 cm
Refractory solid tumors; SD (MR) patient, Ovarian (first), C4, Baseline 1.8
  P-aortic node: 1.1 cm
Refractory solid tumors; SD (MR) patient, Ovarian (first), C4
  Liver met: 5.7 cm
Refractory solid tumors; SD (MR) patient, Ovarian (first), C4, Baseline 567
  CA125: 419 U/mL
Refractory solid tumors; SD (MR) patient, Ovarian (first), C6, Baseline 1.7
  Aortic node: 1.8 cm
Refractory solid tumors; SD (MR) patient, Ovarian (first), C6, Baseline 1.8
  P-aortic node: 1.2 cm
Refractory solid tumors; SD (MR) patient, Ovarian (first), C6
  Liver met: 5.7 cm
Refractory solid tumors; SD (MR) patient, Ovarian (first), C6, Baseline 567
  CA125: 274 U/mL
Refractory solid tumors; SD (MR) patient, Ovarian (second)
  3 mets: 3 mets unchanged
Refractory solid tumors; SD (MR) patient, Ovarian (second), C2
  Rectosigmoid: 0.0 cm
Refractory solid tumors; SD (MR) patient, Ovarian (second), C2, Baseline 50
  CA125: 18 U/mL
Refractory solid tumors; SD (MR) patient, Ovarian (second), C4
  Rectosigmoid: 0.0 cm
Refractory solid tumors; SD (MR) patient, Ovarian (second), C4, Baseline 50
  CA125: 16 U/mL
Refractory solid tumors; SD (MR) patient, Ovarian (second), C6
  Rectosigmoid: 0.0 cm
Refractory solid tumors; SD (MR) patient, Ovarian (second), C6, Baseline 50
  CA125: 15 U/mL
Refractory solid tumors; Table 11, Müllerian
  Best Response: SD (MR)
Refractory solid tumors; Table 11, Nasopharyngeal
  Best Response: SD (MR)
Refractory solid tumors; Table 11, Ovarian (three patients)
  Best Response: SD (MR) and PR
Refractory solid tumors; [3]
  patients that achieved partial responses: two patients
  patients that achieved stable disease for over sixteen weeks: seventeen patients
Refractory solid tumors; [4]
  Best Response: SD
  Weeks on Therapy: 18 Weeks
Refractory solid tumors; [5]
  Best Response: SD
  Weeks on Therapy: 18 Weeks
Refractory solid tumors; [6]
  Best Response: SD
  Weeks on Therapy: 16 Weeks
Refractory solid tumors; [7]
  Best Response: SD
  Weeks on Therapy: 53 Weeks
Refractory solid tumors; [8]
  Best Response: SD
  Weeks on Therapy: 16 Weeks
Refractory solid tumors; [9]
  Best Response: SD
  Weeks on Therapy: 16 Weeks
Refractory solid tumors; [10]
  Best Response: PR and SD
  Weeks on Therapy: 28 Weeks and 18 Weeks
Refractory solid tumors; [11]
  Best Response: SD
  Weeks on Therapy: 16 Weeks
Refractory solid tumors; [12]
  Best Response: SD
  Weeks on Therapy: 18 Weeks
Refractory solid tumors; [13]
  Best Response: SD
  Weeks on Therapy: 24 Weeks
Refractory solid tumors; [14]
  Best Response: SD
  Weeks on Therapy: 33 Weeks
Refractory solid tumors; [15]
  Best Response: SD
  Weeks on Therapy: 18 Weeks
Refractory solid tumors; [16]
  Best Response: SD
  Weeks on Therapy: 46 Weeks
Refractory solid tumors; [17]
  Best Response: PR and SD
  Weeks on Therapy: 24 Weeks and 30 Weeks
Refractory solid tumors; [18]
  Best Response: SD
  Weeks on Therapy: 58 Weeks
Refractory solid tumors; [19]
  Best Response: SD
  Weeks on Therapy: 33 Weeks
Refractory solid tumors; [20]
  Best Response: SD
  Weeks on Therapy: 46 Weeks
Refractory solid tumors; study A (qwk×3)
  stable disease SD, range: 16-24 wks
Refractory solid tumors; study A (qwk×3), 21 patients
  patients that achieved partial response (PR): one patient
  patients that achieved stable disease SD: six
Refractory solid tumors; study B (q3wk), 41 patients
  patients with PR as best response: one PR
  patients with SD as best response: 11
[1]
  Sensitization, fold decrease in the EC50 for cytotoxicity (MTT): ATRFLOX: 1 fold
HCT-116
  Timing of apoptosis: fraction of cell cycle to achieve 50% maximal caspase-3 activation: 0.4
[2]
  IR (%) (tumor inhibition rate): 98.1* %
